Patent publication US20090247495A1, “CU[…] AND USES THEREOF” (priority 2007, published 2009)

Columns and labels:
[1] = test system: Human leukemia cell lines CCRF-CEM, K562, MOLT-4, RPMI-8226 and SR; test: Cell proliferation assay using SRB, 5 human leukemia cell lines; type: cell-based; conditions: 48 hours treatment, range over all leukemia cell lines
Method: Human leukemia cell lines CCRF-CEM, K562, MOLT-4, RPMI-8226 and SR, purchased from the National Cancer Institute (NCI), were cultured in RPMI 1640 medium supplemented with 5%(v/v) fetal Bovine […] and 100 units/ml penicillin and 100 units/ml streptomycin in a humidified 5% CO2 atmosphere at 37° C. • 6.1.2 Reagents and Antibodies
All 5 human leukemia cells were screened by the cell proliferation assay using SRB to quantitative cell protein mass following cucurbitacin B treatment. The experiments were repeated in triplicate. Appropriate number of cells (depends on the doubling time of cells) were seeded into a 96-well tissue culture plate and growth in the indicated medium in presence of different dosages of cucurbitacin B for 2 days. Afterwards 25 μl 80%TCA reagent was added into each well to fix the cells and the plates were incubated at 4° C. at least for 1 hour. Then the plates were washed with tap water and air dried. […] The plates were air dried and dissolved by 100 μl 1 OmMTrizma-base solution and the absorbance was measured at 515 nm using FLUOstar OPTIMA equipment. • 6.1.4 Flow Cytometry for Apoptosis Analysis
Appropriate number of cell density were seeded into a 96 well culture plate and treated with different doses of cucurbitacin B for 2 days. The growth inhibition effects of cucurbitacin B on the cells were detected using SRB.

Panc-1 and SW cells = test: Cell cycle analysis by flow cytometry, pancreatic cells; type: cell-based, human; conditions: different periods
Method: Panc-1 and SW cells were incubated with cucurbitacin B for different periods at 37° C. At specific time points, cells were washed and fixed with chilled 80% ethanol, and incubated on ice for 30 min. prior to staining with propidium iodide. All analyses were performed by flow cytometry.

Prostate cancer = test: SRB growth inhibition, prostate cancer lines of the NCI panel; type: cell-based; conditions: Homo sapiens, 48 hours
From the text: Human cancer cell lines from the 59-NCI Cancer Cell Line Panel including leukemia, melanoma and cancers of breast, brain, colon, lung, ovary, prostate and kidney, were purchased from the National Institute of Cancer (USA). The growth inhibition (GI50) of these cell lines treated with cucurbitacin B and cucurbitacin D in various concentrations was investigated.
59 human cancer cell lines were maintained in RPMI 1640 (Invitrogen Life Technologies, CA, USA) supplemented with 5% Fetal Bovine Serum, 2 mM L-glutamine and 1% Penicillin/Streptomycin (Invitrogen Life Technologies) at 37° C. with 5% CO2. All chemicals were purchased from Sigma (St. Louis, Mo., USA) unless specified otherwise.
Sulforhodamine B (SRB) assay was applied to determine the cytostatic effect of cucurbitacin B and cucurbitacin D. SRB is a dye that binds to cellular proteins and will be dissolved in base. The biomass of total protein can be measured at 520 nm using a plate reader.
Cells were inoculated into 96-well microtiter plates including “Time zero” (Tz) plates in 100 μl at cell concentrations from 5000 to 40,000 cells per well according to NCI guideline. The cells were incubated at 37° C. with 5% CO2 for 24 hours. […] Bound SRB was solubilized with 100-200 ul per well of 10 mM trizma base and absorbance was measured at a wavelength of 520 nm. The percentage of growth inhibition was calculated as follows: […]

HL60 and U937 cells = test: Cytoskeletal staining (F-actin, confocal); type: cell-based, human; conditions: two days
Method: HL60 and U937 cells were incubated with cucurbitacin B for two days at 37° C. Then the cells were centrifuged and fixed in 4% paraformaldehyde, permeabilized with 0.1% Triton X-100 in PBS, and incubated with FITC-conjugated anti-β-tubulin antibody, followed by rhodamine-phalloidin to detect filamentous F-actin. Confocal images were collected on a Leica microscope. […] Untreated HL 60 and U937 cells were depicted in FIGS. 15A and 15C, and cultured HL 60 and U937 cells were depicted in FIGS. 15B and 15D. • 6.2.8 Cucurbitacin B and Cucurbitacin D Inhibited Stat3 Activation and Stimulated Erk and Hsp27 Activation in HepG2, HT29 and MCF-7 Cells

[2] = test system: Human GBM cell lines U87, T98G, U118, U343, U373; test: MTT cell cytotoxicity assay, glioblastoma multiforme cell lines; type: cell-based; conditions: 48 hours, range over the cell lines
Method: Human GBM cell lines U87, T98G, U118, U343, U373 cell lines were maintained in Dulbecco's modified Eagle's medium (Gibco, BRL) with 10% fetal calf serum (Gemini Bio-Products, Calabasas, Calif., USA), 10 U/ml penicillin G and […] streptomycin. They were all incubated at 37° C. in 5% CO2 atmosphere.
The cytotoxic effect of CuB on these cancer cell lines were determined using MTT (3-[4,5-dimethylthiazol-2-yl]-2,5-diphenyl tetrazolium bromide) labeled cell cytotoxicity assay. A total of 1×10^4 cells were seeded into a 96-well plate for 24 hours prior to cucurbitacin B (CuB) treatment. They were then treated with different dosages of CuB for 48 hours. After the treatment, 20 μl of MTT (5 mg/ml) was added to each well and incubated for 4 hrs. Then the medium was discarded and 100 μl of dimethyl sulfoxide was added. The absorbance at 570 nm was then measured by a microplate reader and the 50% inhibition concentration (IC50) were obtained. Results for untreated control cells were set as 100%, with remaining data shown as a percentage of control. Data represented the mean±standard error of triplicate samples.

## CC(=O)OC(C)(C)/C=C/C(=O)[C@](C)(O)C1[C@H](O)C[C@@]2(C)C3CC=C4C(C[C@H](O)C(=O)C4(C)C)[C@]3(C)C(=O)C[C@]12C (some centres unmarked) [cucurbitacin B]
[1]
  GI50: 15.6 to 35.3 nM
Panc-1 and SW cells
  cell cycle effect: arrest at G1 and/or G2 phase
Prostate cancer
  GI50: 17 nM
HL60 and U937 cells
  effect on cytoskeletal network (F-actin): rapid and improper polymerization of the F-actin network
[2]
  GI50: 50 to 100 nM
